Reference: PubChem BioAssay (NCI)
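A five-concentration, 48-hour dose response in 96-well plates underlies each endpoint, interpolated linearly between surrounding concentrations. Here, GI50 denotes the concentration required for 50% inhibition of growth. The concentration for full growth arrest is given as TGI.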

Experiments:
Test in all cases: inhibition of tumour cell growth, NCI panel, 48 h
SF-539 CNS = test system: SF-539 CNS
MCF7 breast = test system: MCF7 breast
SF-268 CNS = test system: SF-268 CNS
IGROV1 ovarian = test system: IGROV1 ovarian
COLO 205 colon = test system: COLO 205 colon
RPMI-8226 leukemia = test system: RPMI-8226 leukemia
HL-60(TB) leukemia = test system: HL-60(TB) leukemia
HCT-116 colon = test system: HCT-116 colon
RXF 393 renal = test system: RXF 393 renal
OVCAR-3 ovarian = test system: OVCAR-3 ovarian

SMILES: C#Cc1c(/C=C/C(=O)OCC)ccc2ccccc12
- GI50 (SF-539 CNS): 22.3 µM
- TGI (SF-539 CNS): 48.9 µM
- GI50 (MCF7 breast): 24 µM
- TGI (MCF7 breast): > 100 µM
- GI50 (SF-268 CNS): 18.2 µM
- TGI (SF-268 CNS): 58.5 µM
- GI50 (IGROV1 ovarian): 5.77 µM
- TGI (IGROV1 ovarian): 26.2 µM
- GI50 (COLO 205 colon): 13.8 µM
- TGI (COLO 205 colon): 33.5 µM
- GI50 (RPMI-8226 leukemia): 10.7 µM
- TGI (RPMI-8226 leukemia): 29.3 µM
- GI50 (HL-60(TB) leukemia): 10.6 µM
- TGI (HL-60(TB) leukemia): 26.1 µM
- GI50 (HCT-116 colon): 26.2 µM
- TGI (HCT-116 colon): 91.6 µM
- GI50 (RXF 393 renal): 22.6 µM
- TGI (RXF 393 renal): 69.7 µM
- GI50 (OVCAR-3 ovarian): 16 µM
- TGI (OVCAR-3 ovarian): 40.6 µM

SMILES: O=c1cc(-c2cccc3c2Sc2ccccc2S3)oc(N2CCOCC2)c1
- GI50 (SF-539 CNS): 11.6 µM
- TGI (SF-539 CNS): 25.1 µM
- GI50 (MCF7 breast): 5.94 µM
- TGI (MCF7 breast): 22.4 µM
- GI50 (SF-268 CNS): 7.76 µM
- TGI (SF-268 CNS): 24.2 µM
- GI50 (IGROV1 ovarian): 4.08 µM
- TGI (IGROV1 ovarian): 17.7 µM
- GI50 (COLO 205 colon): 11.5 µM
- TGI (COLO 205 colon): 26.3 µM
- GI50 (RPMI-8226 leukemia): 9.83 µM
- TGI (RPMI-8226 leukemia): 43.4 µM
- GI50 (HL-60(TB) leukemia): 11.6 µM
- TGI (HL-60(TB) leukemia): 32.3 µM
- GI50 (HCT-116 colon): 9.55 µM
- TGI (HCT-116 colon): 22.6 µM
- GI50 (RXF 393 renal): 1.76 µM
- TGI (RXF 393 renal): 8.05 µM
- GI50 (OVCAR-3 ovarian): 10.1 µM
- TGI (OVCAR-3 ovarian): 21.9 µM

SMILES: CS(=O)(=O)CCc1cccc(C(=O)c2cnn(-c3ccc(F)cc3)c2N)c1
- GI50 (SF-539 CNS): > 25 µM
- TGI (SF-539 CNS): > 25 µM
- GI50 (MCF7 breast): > 25 µM
- TGI (MCF7 breast): > 25 µM
- GI50 (SF-268 CNS): > 25 µM
- TGI (SF-268 CNS): > 25 µM
- GI50 (IGROV1 ovarian): > 25 µM
- TGI (IGROV1 ovarian): > 25 µM
- GI50 (COLO 205 colon): > 25 µM
- TGI (COLO 205 colon): > 25 µM
- GI50 (RPMI-8226 leukemia): > 25 µM
- TGI (RPMI-8226 leukemia): > 25 µM
- GI50 (HL-60(TB) leukemia): > 9.84 µM
- TGI (HL-60(TB) leukemia): > 23.8 µM
- GI50 (HCT-116 colon): > 25 µM
- TGI (HCT-116 colon): > 25 µM
- GI50 (RXF 393 renal): > 25 µM
- TGI (RXF 393 renal): > 25 µM
- GI50 (OVCAR-3 ovarian): > 25 µM
- TGI (OVCAR-3 ovarian): > 25 µM
